Test results taken from US9994547B2, “Heteroarylamide inhibitors of TBK1” (Takeda Pharmaceutical Company Limited, priority 2014, dated 2018).

Each molecule was assayed against Full length human TBK1 (Homo sapiens (Human), UniProt Q9UHD2) (assay: Inhibition of TBK1 Enzyme (Example A)). Conditions: -log(IC50), IC50 molar; 3 nM TBK1, 25 μM ATP, 60 min RT.
Assay type: biochemical
Summary of the method: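 Full-length N-His human TBK1 from Sf9 baculovirus was tested with 11-point 2.5-fold dilutions (1% DMSO) in Hepes pH 7.4, MgCl2, EDTA, Brij, DTT. After 60 min RT and EDTA quench, microfluidic conversion was fitted and reported as pIC50.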

Full length human TBK1, sequence (Q9UHD2 whole entry): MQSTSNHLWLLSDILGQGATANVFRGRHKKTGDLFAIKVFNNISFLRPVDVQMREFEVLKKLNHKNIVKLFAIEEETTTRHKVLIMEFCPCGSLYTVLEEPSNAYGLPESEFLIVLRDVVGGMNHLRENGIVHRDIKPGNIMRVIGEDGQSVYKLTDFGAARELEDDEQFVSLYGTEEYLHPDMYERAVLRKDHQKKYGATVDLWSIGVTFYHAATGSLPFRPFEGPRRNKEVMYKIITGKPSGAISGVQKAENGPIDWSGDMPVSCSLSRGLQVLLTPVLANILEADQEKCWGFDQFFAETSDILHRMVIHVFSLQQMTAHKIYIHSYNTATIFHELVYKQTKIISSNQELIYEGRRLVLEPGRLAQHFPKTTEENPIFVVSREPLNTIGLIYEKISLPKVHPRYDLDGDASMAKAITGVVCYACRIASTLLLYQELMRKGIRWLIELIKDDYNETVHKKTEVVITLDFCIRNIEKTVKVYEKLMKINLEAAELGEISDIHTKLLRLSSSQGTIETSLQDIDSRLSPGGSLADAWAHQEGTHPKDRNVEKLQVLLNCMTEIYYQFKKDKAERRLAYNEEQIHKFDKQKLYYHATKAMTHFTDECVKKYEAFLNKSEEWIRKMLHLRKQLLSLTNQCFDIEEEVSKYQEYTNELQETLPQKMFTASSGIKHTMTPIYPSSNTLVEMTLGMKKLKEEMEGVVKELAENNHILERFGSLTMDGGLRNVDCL

TBK1 Inhibition (pIC50) | SMILES
7.5 | N#Cc1ncc(-c2cnc(NC(=O)C3CC3)cn2)cc1NCC(=O)N1CCOC1C(F)(F)F (stereo not shown) [Example 64, N-(5-(6-cyano-5-((2-oxo-2-(2-(trifluoromethyl)oxazolidin-3-yl)ethyl)amino)pyridin-3-yl)pyrazin-2-yl)cyclopropanecarboxamide]
7.7 | CC(C#N)N(C)C(=O)[C@H](C)Nc1cc(-c2cnc(NC(=O)C3CC3)cn2)cnc1C#N (stereo partly drawn) [Example 69, N-(5-(6-cyano-5-(((2S)-1-((1-cyanoethyl)(methyl)amino)-1-oxopropan-2-yl)amino)pyridin-3-yl)pyrazin-2-yl)cyclopropanecarboxamide]
8.2 | COCC[C@H](Nc1cc(-c2cnc(NC(=O)C3CC3)cn2)ccc1C#N)C(=O)N(C)C [Example 7, (S)-N-(5-(4-cyano-3-((1-(dimethylamino)-4-methoxy-1-oxobutan-2-yl)amino)phenyl)pyrazin-2-yl)cyclopropanecarboxamide]
7.7 | CC(Nc1cc(-c2cnc(NC(=O)C3CC3)cn2)cnc1C#N)C(=O)N(C)CC#N (stereo not shown) [Example 43, N-(5-(6-cyano-5-((1-((cyanomethyl)(methyl)amino)-1-oxopropan-2-yl)amino)pyridin-3-yl)pyrazin-2-yl)cyclopropanecarboxamide]
7.2 | N#CCN(CCO)C(=O)CNc1cc(-c2cnc(NC(=O)C3CC3)cn2)cnc1C#N [Example 87, N-(5-(6-cyano-5-((2-((cyanomethyl)(2-hydroxyethyl)amino)-2-oxoethyl)amino)pyridin-3-yl)pyrazin-2-yl)cyclopropanecarboxamide]
7.5 | N#Cc1ncc(-c2cnc(NC(=O)C3CC3)cn2)cc1NCC(=O)N1CCC[C@@H]1C#N [Example 45, (R)-N-(5-(6-cyano-5-((2-(2-cyanopyrrolidin-1-yl)-2-oxoethyl)amino)pyridin-3-yl)pyrazin-2-yl)cyclopropanecarboxamide]
6.8 | C[C@H](Nc1cc(-c2cnc(NC(=O)C3CC3)cn2)cnc1C#N)C(=O)N(CCO)CC(F)F [Example 79, (S)-N-(5-(6-cyano-5-((1-((2,2-difluoroethyl)(2-hydroxyethyl)amino)-1-oxopropan-2-yl)amino)pyridin-3-yl)pyrazin-2-yl)cyclopropanecarboxamide]
8.1 | CCC(Nc1cc(-c2cnc(NC(=O)C3CC3)cn2)ccc1C#N)C(=O)N(C)C (stereo not shown) [Example 6, N-(5-(4-cyano-3-((1-(dimethylamino)-1-oxobutan-2-yl)amino)phenyl)pyrazin-2-yl)cyclopropanecarboxamide]
7.4 | CN(C)C(=O)[C@H](CC(F)F)Nc1cc(-c2cnc(NC(=O)C3CC3)cn2)cnc1C#N [Example 80, (S)-N-(5-(6-cyano-5-((1-(dimethylamino)-4,4-difluoro-1-oxobutan-2-yl)amino)pyridin-3-yl)pyrazin-2-yl)cyclopropanecarboxamide]
7.2 | CN(C)C(=O)[C@H](CO)Nc1cc(-c2cnc(NC(=O)C3CC3)cn2)cnc1C#N [Example 57, (S)-N-(5-(6-cyano-5-((1-(dimethylamino)-3-hydroxy-1-oxopropan-2-yl)amino)pyridin-3-yl)pyrazin-2-yl)cyclopropanecarboxamide]
7.1 | CC1CC1C(=O)Nc1cnc(-c2ccc(C#N)c(NCC(=O)N(C)C)c2)cn1 (stereo not shown) [Example 4, N-(5-(4-cyano-3-((2-(dimethylamino)-2-oxoethyl)amino)phenyl)pyrazin-2-yl)-2-methylcyclopropanecarboxamide]
5.6 | CC1CC1C(=O)Nc1cnc(-c2cnc(C#N)c(NCC(N)=O)c2)cn1 (stereo not shown) [Example 144, N-(5-(5-((2-amino-2-oxoethyl)amino)-6-cyanopyridin-3-yl)pyrazin-2-yl)-2-methylcyclopropanecarboxamide]
5.3 | CN(Cc1cnccn1)C(=O)CNc1cc(-c2cnc(NC(=O)C3CC3)cn2)cnc1C#N [Example 76, N-(5-(6-cyano-5-((2-(methyl(pyrazin-2-ylmethyl)amino)-2-oxoethyl)amino)pyridin-3-yl)pyrazin-2-yl)cyclopropanecarboxamide]
7.0 | C[C@H](O)[C@H](Nc1cc(-c2cnc(NC(=O)C3CC3)cn2)cnc1C#N)C(=O)N(C)C [Example 39, N-(5-(6-cyano-5-(((2S,3S)-1-(dimethylamino)-3-hydroxy-1-oxobutan-2-yl)amino)pyridin-3-yl)pyrazin-2-yl)cyclopropanecarboxamide]
6.9 | C[C@@H](O)[C@@H](Nc1cc(-c2cnc(NC(=O)C3CC3)cn2)cnc1C#N)C(=O)N(C)C [Example 37, N-(5-(6-cyano-5-(((2R,3R)-1-(dimethylamino)-3-hydroxy-1-oxobutan-2-yl)amino)pyridin-3-yl)pyrazin-2-yl)cyclopropanecarboxamide]
6.6 | CC(C#N)NC(=O)[C@H](C)Nc1cc(-c2cnc(NC(=O)C3CC3)cn2)cnc1C#N (stereo partly drawn) [Example 62, N-(5-(6-cyano-5-(((2S)-1-((1-cyanoethyl)amino)-1-oxopropan-2-yl)amino)pyridin-3-yl)pyrazin-2-yl)cyclopropanecarboxamide]

TBK1 Inhibition (pIC50) | SMILES
6.9 | CN(C)C(=O)C(CCO)Nc1cc(-c2cnc(NC(=O)C3CC3)cn2)cnc1C#N (stereo not shown) [Example 115, N-(5-(6-cyano-5-((1-(dimethylamino)-4-hydroxy-1-oxobutan-2-yl)amino)pyridin-3-yl)pyrazin-2-yl)cyclopropanecarboxamide]
6.0 | CC(=O)N1CCN(C(=O)CNc2cc(-c3cnc(NC(=O)C4CC4)cn3)cnc2C#N)CC1 [Example 99, N-(5-(5-((2-(4-acetylpiperazin-1-yl)-2-oxoethyl)amino)-6-cyanopyridin-3-yl)pyrazin-2-yl)cyclopropanecarboxamide]
6.9 | CN(CCC#N)C(=O)CNc1cc(-c2cnc(NC(=O)C3CC3)cn2)cnc1C#N [Example 65, N-(5-(6-cyano-5-((2-((2-cyanoethyl)(methyl)amino)-2-oxoethyl)amino)pyridin-3-yl)pyrazin-2-yl)cyclopropanecarboxamide]
7.2 | CN(CC#N)C(=O)CNc1cc(-c2cnc(NC(=O)C3CC3)cn2)cnc1C#N [Example 49, N-(5-(6-cyano-5-((2-((cyanomethyl)(methyl)amino)-2-oxoethyl)amino)pyridin-3-yl)pyrazin-2-yl)cyclopropanecarboxamide]
7.2 | C[C@H](Nc1cc(-c2cnc(NC(=O)[C@H]3C[C@H]3C)cn2)cnc1C#N)C(=O)N(C)C [Example 109, (1S,2R)-N-(5-(6-cyano-5-(((S)-1-(dimethylamino)-1-oxopropan-2-yl)amino)pyridin-3-yl)pyrazin-2-yl)-2-methylcyclopropanecarboxamide]
5.8 | COCCNC(=O)[C@H](C)Nc1cc(-c2cnc(NC(=O)C3CC3)cn2)ccc1C#N [Example 15, (S)-N-(5-(4-cyano-3-((1-((2-methoxyethyl)amino)-1-oxopropan-2-yl)amino)phenyl)pyrazin-2-yl)cyclopropanecarboxamide]
6.2 | CN(C)C(=O)C(CC(F)(F)F)Nc1cc(-c2cnc(NC(=O)C3CC3)cn2)cnc1C#N (stereo not shown) [Example 138, N-(5-(6-cyano-5-((1-(dimethylamino)-4,4,4-trifluoro-1-oxobutan-2-yl)amino)pyridin-3-yl)pyrazin-2-yl)cyclopropanecarboxamide]
7.7 | C[C@H](Nc1cc(-c2cnc(NC(=O)C3CC3)cn2)cnc1C#N)C(=O)N1CC[C@H](F)C1 [Example 139, N-(5-(6-cyano-5-(((S)-1-((S)-3-fluoropyrrolidin-1-yl)-1-oxopropan-2-yl)amino)pyridin-3-yl)pyrazin-2-yl)cyclopropanecarboxamide]
6.3 | C[C@H](Nc1cc(-c2cnc(NC(=O)C3CC3)cn2)cnc1C#N)C(=O)N(C)CCN(C)C [Example 67, (S)-N-(5-(6-cyano-5-((1-((2-(dimethylamino)ethyl)(methyl)amino)-1-oxopropan-2-yl)amino)pyridin-3-yl)pyrazin-2-yl)cyclopropanecarboxamide]
7.2 | C[C@H]1COCCN1C(=O)CNc1cc(-c2cnc(NC(=O)C3CC3)cn2)cnc1C#N [Example 84, (S)-N-(5-(6-cyano-5-((2-(3-methylmorpholino)-2-oxoethyl)amino)pyridin-3-yl)pyrazin-2-yl)cyclopropanecarboxamide]
7.9 | CC(Nc1cc(-c2cnc(NC(=O)C3CC3)cn2)ccc1C#N)C(=O)N(C)C (stereo not shown) [Example 3, N-(5-(4-cyano-3-((1-(dimethylamino)-1-oxopropan-2-yl)amino)phenyl)pyrazin-2-yl)cyclopropanecarboxamide]
7.3 | C[C@H](Nc1cc(-c2cnc(NC(=O)C3CC3)cn2)ccc1C#N)C(=O)N1CCCC1 [Example 10, (S)-N-(5-(4-cyano-3-((1-oxo-1-(pyrrolidin-1-yl)propan-2-yl)amino)phenyl)pyrazin-2-yl)cyclopropanecarboxamide]
8.1 | CC(NC(=O)[C@H](C)Nc1cc(-c2cnc(NC(=O)C3CC3)cn2)cnc1C#N)C(F)F (stereo partly drawn) [Example 119, N-(5-(6-cyano-5-(((2S)-1-((1,1-difluoropropan-2-yl)amino)-1-oxopropan-2-yl)amino)pyridin-3-yl)pyrazin-2-yl)cyclopropanecarboxamide]
7.8 | CCC(Nc1cc(-c2cnc(NC(=O)C3CC3)cn2)ccc1C#N)C(=O)N(C)CCO (stereo not shown) [Example 29, N-(5-(4-cyano-3-((1-((2-hydroxyethyl)(methyl)amino)-1-oxobutan-2-yl)amino)phenyl)pyrazin-2-yl)cyclopropanecarboxamide]
6.7 | CC(C#N)NC(=O)CNc1cc(-c2cnc(NC(=O)C3CC3)cn2)cnc1C#N (stereo not shown) [Example 59, N-(5-(6-cyano-5-((2-((1-cyanoethyl)amino)-2-oxoethyl)amino)pyridin-3-yl)pyrazin-2-yl)cyclopropanecarboxamide]
